For 2 compounds, remaining binding results are on record in publication PMC5862592, “CDK8/19 inhibition induces premature G1/S transition and ATR-dependent cell death in prostate cancer cells” (Oncotarget, 2018).

Where two headings read alike, the source gives them in different places.

Test in all cases: biochemical
Holding throughout (design): KINOMEscan active site-directed competition binding assay (DiscoveRx), 456 kinases, per cent of control at 300 nM
Details in all cases: read-out: Percent of Control (%)

One assay concerns the target AAK1 (Homo sapiens, UniProt Q2M2I8). Summed up: (§1)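 Compounds at 300 nmol/L screened against 456 kinases by KINOMEscan, a competition binding assay measuring displacement at the kinase active site.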
The target in assay [1] is T1, ABL1(F317I)-nonphosphorylated (Homo sapiens, UniProt P00519, F317I).
T1 construct: nonphosphorylated
The method in brief:
as §1

Assay [2] deals with T2, ABL1(F317L)-nonphosphorylated (Homo sapiens, UniProt P00519, F317L).
T2 construct: nonphosphorylated
Summed up: as §1

For assay [3], the target named is T3, ABL1(Y253F)-phosphorylated (Homo sapiens, UniProt P00519, Y253F).
T3 construct: phosphorylated
Summed up: as §1

A further assay has as its target T4, ADCK4 (Homo sapiens, UniProt Q96D53).
T4 construct: gene COQ8B
Summed up:
as §1

In a further assay the target is CLK3 (Homo sapiens, UniProt P49761). Summed up: as §1
Another assay addresses CSNK2A1 (Homo sapiens, UniProt P68400). Summed up:
as §1

In the next assay the target is DAPK2 (Homo sapiens, UniProt Q9UIK4). The method in brief: as §1
The next assay deals with EGFR (Homo sapiens, UniProt P00533). The method in brief:
as §1

In a further assay the target is EGFR(E746-A750del) (Homo sapiens, UniProt P00533, DEL746-750). Summed up:
as §1

In a further assay the target is ERBB3 (Homo sapiens, UniProt P21860). The method in brief:
as §1

The next assay addresses T5, ERK3 (Homo sapiens, UniProt Q16659).
T5 construct: gene MAPK6
Summed up:
as §1

A further assay deals with T6, ERK8 (Homo sapiens, UniProt Q8TD08).
T6 construct: gene MAPK15
Summed up:
as §1

Another assay addresses FGFR2 (Homo sapiens, UniProt P21802). Summed up:
as §1

A further assay has as its target PDGFRA (Homo sapiens, UniProt P16234). Summed up: as §1
The next assay concerns the target PDGFRB (Homo sapiens, UniProt P09619). Summed up: as §1
Another assay has as its target T7, PFTK1 (Homo sapiens, UniProt O94921).
T7 construct: gene CDK14
The method in brief:
as §1

The target of a further assay is PRKCE (Homo sapiens, UniProt Q02156). The method in brief:
as §1

For a further assay, the target named is T8, RIPK5 (Homo sapiens, UniProt Q6XUX3).
T8 construct: gene DSTYK
The method in brief: as §1

Assay [4] has as its target T9, RPS6KA5(Kin.Dom.1-N-terminal) (Homo sapiens, UniProt O75582).
T9 construct: Kin.Dom.1-N-terminal
Summed up: as §1

The next assay has as its target VRK2 (Homo sapiens, UniProt Q86Y07). The method in brief: as §1

Sequence of EGFR(E746-A750del) (P00533 with tags, fused parts or gaps DEL746-750): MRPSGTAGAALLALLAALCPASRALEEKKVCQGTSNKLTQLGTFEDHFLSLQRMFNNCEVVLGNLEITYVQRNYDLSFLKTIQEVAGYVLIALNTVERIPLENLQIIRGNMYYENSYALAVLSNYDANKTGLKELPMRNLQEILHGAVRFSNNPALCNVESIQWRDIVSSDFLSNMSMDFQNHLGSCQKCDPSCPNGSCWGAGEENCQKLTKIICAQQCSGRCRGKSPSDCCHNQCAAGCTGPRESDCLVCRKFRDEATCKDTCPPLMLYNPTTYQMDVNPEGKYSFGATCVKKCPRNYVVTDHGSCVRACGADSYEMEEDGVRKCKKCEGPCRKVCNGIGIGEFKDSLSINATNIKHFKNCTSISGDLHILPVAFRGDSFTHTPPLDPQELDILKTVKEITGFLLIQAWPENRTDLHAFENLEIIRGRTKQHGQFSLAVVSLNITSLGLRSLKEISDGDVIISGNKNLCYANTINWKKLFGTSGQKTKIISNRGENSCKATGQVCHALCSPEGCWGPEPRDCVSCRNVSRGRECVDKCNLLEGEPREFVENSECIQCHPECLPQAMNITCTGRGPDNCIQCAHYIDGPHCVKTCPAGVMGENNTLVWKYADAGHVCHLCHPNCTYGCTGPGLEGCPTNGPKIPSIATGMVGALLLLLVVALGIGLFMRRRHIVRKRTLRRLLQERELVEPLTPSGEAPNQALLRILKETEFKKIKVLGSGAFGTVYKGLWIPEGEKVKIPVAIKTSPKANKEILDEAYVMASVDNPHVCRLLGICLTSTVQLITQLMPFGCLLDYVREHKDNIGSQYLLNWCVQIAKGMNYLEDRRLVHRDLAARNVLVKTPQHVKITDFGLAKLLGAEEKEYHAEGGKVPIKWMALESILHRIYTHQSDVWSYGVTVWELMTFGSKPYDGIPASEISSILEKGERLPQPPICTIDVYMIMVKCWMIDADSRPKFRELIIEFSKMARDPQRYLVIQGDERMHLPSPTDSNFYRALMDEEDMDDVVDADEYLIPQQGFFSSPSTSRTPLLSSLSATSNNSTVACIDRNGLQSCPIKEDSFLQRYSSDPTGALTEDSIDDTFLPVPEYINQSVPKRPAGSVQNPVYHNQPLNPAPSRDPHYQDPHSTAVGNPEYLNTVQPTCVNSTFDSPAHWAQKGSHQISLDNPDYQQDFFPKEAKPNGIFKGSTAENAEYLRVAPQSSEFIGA
Sequence of VRK2 (Q86Y07 whole entry): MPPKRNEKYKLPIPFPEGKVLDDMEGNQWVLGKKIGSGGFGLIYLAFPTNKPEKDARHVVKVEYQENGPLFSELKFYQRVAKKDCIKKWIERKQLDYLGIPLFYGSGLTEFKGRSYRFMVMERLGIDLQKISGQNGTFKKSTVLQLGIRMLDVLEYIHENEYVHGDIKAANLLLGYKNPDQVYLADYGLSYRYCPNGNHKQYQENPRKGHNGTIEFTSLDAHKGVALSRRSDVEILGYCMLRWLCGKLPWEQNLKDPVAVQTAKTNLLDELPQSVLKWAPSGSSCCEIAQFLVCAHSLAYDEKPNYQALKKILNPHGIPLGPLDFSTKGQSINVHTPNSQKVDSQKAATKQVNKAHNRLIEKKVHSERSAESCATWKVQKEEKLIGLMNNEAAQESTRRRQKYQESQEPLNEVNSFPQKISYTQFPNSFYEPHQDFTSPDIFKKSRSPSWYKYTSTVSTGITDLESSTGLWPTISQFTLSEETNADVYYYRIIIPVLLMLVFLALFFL
Sequence of AAK1 (Q2M2I8 whole entry): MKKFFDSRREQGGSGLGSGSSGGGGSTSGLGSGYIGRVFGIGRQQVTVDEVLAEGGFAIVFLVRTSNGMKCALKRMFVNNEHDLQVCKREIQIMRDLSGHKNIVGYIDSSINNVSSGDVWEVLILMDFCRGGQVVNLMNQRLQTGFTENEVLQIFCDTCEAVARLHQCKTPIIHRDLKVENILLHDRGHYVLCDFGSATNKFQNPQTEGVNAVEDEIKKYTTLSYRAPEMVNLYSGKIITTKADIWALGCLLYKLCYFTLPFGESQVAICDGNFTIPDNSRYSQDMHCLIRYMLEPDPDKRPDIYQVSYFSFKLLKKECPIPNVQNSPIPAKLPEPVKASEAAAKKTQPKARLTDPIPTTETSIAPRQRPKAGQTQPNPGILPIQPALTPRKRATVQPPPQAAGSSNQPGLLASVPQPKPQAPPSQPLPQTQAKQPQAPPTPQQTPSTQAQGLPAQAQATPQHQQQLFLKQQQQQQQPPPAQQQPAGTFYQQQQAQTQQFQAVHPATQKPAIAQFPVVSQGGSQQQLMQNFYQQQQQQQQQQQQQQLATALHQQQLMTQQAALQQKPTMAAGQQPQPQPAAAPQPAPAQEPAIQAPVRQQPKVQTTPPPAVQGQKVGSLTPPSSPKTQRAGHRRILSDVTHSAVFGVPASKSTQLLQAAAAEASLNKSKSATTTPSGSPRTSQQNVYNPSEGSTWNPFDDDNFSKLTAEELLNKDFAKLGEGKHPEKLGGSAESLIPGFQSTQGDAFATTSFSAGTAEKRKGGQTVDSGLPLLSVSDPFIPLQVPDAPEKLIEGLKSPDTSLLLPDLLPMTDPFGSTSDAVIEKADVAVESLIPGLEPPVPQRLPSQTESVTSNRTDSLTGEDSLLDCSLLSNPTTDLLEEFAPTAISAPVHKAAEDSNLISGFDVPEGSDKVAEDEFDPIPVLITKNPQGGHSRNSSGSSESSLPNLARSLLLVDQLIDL
T5 sequence (Q16659 whole entry): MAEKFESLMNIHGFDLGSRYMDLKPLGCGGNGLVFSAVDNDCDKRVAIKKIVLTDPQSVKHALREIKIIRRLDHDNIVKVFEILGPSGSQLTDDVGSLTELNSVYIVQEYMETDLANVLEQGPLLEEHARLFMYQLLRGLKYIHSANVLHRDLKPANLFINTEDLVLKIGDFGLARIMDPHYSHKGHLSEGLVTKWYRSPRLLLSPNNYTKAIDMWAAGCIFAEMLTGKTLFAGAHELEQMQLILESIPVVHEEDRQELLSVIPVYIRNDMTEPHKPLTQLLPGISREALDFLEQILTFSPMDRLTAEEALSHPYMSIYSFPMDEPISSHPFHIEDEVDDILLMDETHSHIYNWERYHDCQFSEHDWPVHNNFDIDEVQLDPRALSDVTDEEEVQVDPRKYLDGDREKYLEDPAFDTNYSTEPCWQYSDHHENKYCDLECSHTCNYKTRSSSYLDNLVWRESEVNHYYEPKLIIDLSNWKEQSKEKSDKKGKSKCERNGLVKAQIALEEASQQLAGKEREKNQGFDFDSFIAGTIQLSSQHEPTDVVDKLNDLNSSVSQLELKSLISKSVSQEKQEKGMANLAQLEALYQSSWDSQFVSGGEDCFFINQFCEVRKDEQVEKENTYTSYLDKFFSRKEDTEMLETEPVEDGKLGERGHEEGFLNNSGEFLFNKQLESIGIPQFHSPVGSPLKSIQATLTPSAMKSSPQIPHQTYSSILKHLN
Sequence of CSNK2A1 (P68400 whole entry): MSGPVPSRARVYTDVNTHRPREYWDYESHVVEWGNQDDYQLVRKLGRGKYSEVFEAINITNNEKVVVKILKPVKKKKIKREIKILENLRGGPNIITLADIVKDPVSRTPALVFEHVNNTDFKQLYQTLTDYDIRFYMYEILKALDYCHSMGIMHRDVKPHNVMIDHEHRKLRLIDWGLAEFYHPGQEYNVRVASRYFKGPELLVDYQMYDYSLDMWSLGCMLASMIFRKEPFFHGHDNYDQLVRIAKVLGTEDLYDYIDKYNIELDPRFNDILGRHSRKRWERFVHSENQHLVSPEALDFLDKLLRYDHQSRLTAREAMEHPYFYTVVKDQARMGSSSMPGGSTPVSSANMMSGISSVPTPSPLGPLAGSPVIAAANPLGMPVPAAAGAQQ
T7 sequence (O94921 whole entry): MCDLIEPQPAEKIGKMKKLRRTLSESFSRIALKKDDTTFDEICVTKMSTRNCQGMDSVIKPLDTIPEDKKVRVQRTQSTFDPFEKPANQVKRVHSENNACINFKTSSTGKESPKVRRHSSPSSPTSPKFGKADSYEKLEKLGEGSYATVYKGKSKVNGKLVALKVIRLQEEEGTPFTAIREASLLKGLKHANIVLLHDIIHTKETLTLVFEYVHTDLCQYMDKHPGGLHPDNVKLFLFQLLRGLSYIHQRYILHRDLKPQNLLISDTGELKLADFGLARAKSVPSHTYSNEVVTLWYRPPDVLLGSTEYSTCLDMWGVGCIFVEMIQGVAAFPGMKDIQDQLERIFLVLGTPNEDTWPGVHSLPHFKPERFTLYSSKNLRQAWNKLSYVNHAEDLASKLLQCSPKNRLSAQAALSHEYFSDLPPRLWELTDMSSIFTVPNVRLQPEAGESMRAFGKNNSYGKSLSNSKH
T9 sequence (O75582 whole entry): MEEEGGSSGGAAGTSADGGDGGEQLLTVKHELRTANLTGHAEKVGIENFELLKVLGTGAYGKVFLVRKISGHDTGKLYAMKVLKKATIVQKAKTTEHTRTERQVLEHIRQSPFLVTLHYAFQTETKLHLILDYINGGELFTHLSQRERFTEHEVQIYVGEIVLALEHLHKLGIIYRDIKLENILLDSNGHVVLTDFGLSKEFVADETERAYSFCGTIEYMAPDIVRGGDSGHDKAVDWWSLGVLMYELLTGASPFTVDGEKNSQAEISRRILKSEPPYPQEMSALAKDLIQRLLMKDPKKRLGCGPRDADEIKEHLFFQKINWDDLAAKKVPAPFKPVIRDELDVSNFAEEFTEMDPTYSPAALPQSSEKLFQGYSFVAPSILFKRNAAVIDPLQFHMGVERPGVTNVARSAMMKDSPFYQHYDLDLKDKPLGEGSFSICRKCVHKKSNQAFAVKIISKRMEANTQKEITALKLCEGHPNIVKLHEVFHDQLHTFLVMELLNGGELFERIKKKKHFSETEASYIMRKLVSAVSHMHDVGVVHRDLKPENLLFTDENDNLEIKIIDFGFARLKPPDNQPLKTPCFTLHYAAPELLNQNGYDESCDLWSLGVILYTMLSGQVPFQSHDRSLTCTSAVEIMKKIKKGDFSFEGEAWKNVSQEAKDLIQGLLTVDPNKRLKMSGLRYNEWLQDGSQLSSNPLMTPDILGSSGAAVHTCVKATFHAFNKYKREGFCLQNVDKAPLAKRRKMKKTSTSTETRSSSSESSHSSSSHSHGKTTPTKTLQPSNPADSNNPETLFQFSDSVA

Turning to `O=C(/C=C/c1cnccc1-c1ccc(F)cc1)Nc1ccc(CCc2nnco2)cc1` [T-418, (2E)-3-(4-(4-fluorophenyl)pyridin-3-yl)-N-(4-(2-(1,3,4-oxadiazol-2-yl)ethyl)phenyl)acrylamide], the remaining binding at 0.3 µM is 83% on AAK1 (sheet T-418); 100% in assay [1] (sheet T-418); 100% in [2] (sheet T-418); 98% in assay [3] (sheet T-418); 91% at ADCK4 (sheet T-418); 92% on CLK3 (sheet T-418). The remaining binding at 0.3 µM on CSNK2A1 (sheet T-418) turned out to be 84%; on DAPK2 (sheet T-418) it was 87%; on EGFR (sheet T-418), 59%; on EGFR(E746-A750del) (sheet T-418) it was 92%; on ERBB3 (sheet T-418) it was 76%; on ERK3 (sheet T-418), 68%. Moreover, the remaining binding at 0.3 µM on ERK8 (sheet T-418) was found to be 94%; on FGFR2 (sheet T-418), 90%; on PDGFRA (sheet T-418), 97%; at PDGFRB (sheet T-418), 100%; at PFTK1 (sheet T-418), 87%; on PRKCE (sheet T-418), 39%. The remaining binding at 0.3 µM turned out to be 86% at RIPK5 (sheet T-418), 80% in assay [4] (sheet T-418) and 100% on VRK2 (sheet T-418).

Turning to `Cc1ncccc1Oc1sc(C(N)=O)c2c1-c1c(cnn1C)CC2` [T-474, 1-methyl-8-((2-methylpyridin-3-yl)oxy)-4,5-dihydro-1H-thieno[3,4-g]indazole-6-carboxamide], the remaining binding at 0.3 µM on AAK1 amounted to 93%; in assay [1] it was 100%; in assay [2], 100%; in assay [3] it was 100%; at ADCK4, 92%; at CLK3, 100%. For the same compound, the remaining binding at 0.3 µM on CSNK2A1 amounted to 61%; at DAPK2, 100%; on EGFR, 61%; on EGFR(E746-A750del), 87%; on ERBB3 it was 78%; at ERK3, 78%. Besides, the remaining binding at 0.3 µM on ERK8 is 88%; on FGFR2, 100%; on PDGFRA it was 96%; at PDGFRB it was 100%; on PFTK1, 100%; on PRKCE, 35%. Further, the remaining binding at 0.3 µM (at RIPK5; in assay [4]; on VRK2) was 100% in each case.
